# Laboratory results: patent US8399459B2, “1,4 oxazines as BACE1 and/or BACE2 inhibitors” (Hoffmann-La Roche Inc., priority 2011, dated 2013)
# Structures can show the parent of a compound that is named as a salt.
# Target: T1, BACE1 (Homo sapiens, UniProt P56817)
# T1 construct: Human HEK293 cells which are stably transfected with a vector expressing a cDNA of the human APP wt gene (APP695); endogenous in cells; host or cells: HEK293 (human), stably transfected with human APP695 wt only
# Assay: Cellular Aβ-lowering assay (Aβ40 ELISA, HEK293 cells expressing human APP695)
# Format: cell-based
# Conditions: HEK293 cells stably expressing human APP695; Aβ40 in supernatant after 18-20 hrs
# Protocol: Cellular Aβ-Lowering Assay:
# Human HEK293 cells which are stably transfected with a vector expressing a cDNA of the human APP wt gene (APP695) were used to assess the potency of the compounds in a cellular assay. The cells were seeded in 96-well microtiter plates in cell culture medium (Iscove, plus 10% (v/v) fetal bovine serum, glutamine, penicillin/streptomycin) to about 80% confluence and the compounds were added at a 10× concentration in 1/10 volume of medium without FCS containing 8% DMSO (final concentration of DMSO was kept at 0.8% v/v). After 18-20 hrs incubation at 37° C. and 5% CO2 in a humidified incubator the culture supernatant was harvested for the determination of Aβ40 concentrations. 96well ELISA plates (e.g., Nunc MaxiSorb) were coated with monoclonal antibody which specifically recognize the C-terminal end of Aβ40 (Brockhaus et al., NeuroReport 9, 1481-1486; 1998). After blocking of non-specific binding sites with e.g. 1% BSA and washing, the culture supernatants were added in suitable dilutions together with a horseradish peroxidase-coupled Aβ detection antibody (e.g., antibody 4G8, Senetek, Maryland Heights, Mo.) and incubated for 5 to 7 hrs. Subsequently the wells of the microtiter plate were washed extensively with Tris-buffered saline containing 0.05% Tween 20 and the assay was developed with tetramethylbenzidine/H2O2 in citric acid buffer. After stopping the reaction with one volume 1 N H2SO4 the reaction was measured in an ELISA reader at 450 nm wavelength. The concentrations of Aβ in the culture supernatants were calculated from a standard curve obtained with known amounts of pure Aβ peptide.
# T1 sequence (P56817 46-501): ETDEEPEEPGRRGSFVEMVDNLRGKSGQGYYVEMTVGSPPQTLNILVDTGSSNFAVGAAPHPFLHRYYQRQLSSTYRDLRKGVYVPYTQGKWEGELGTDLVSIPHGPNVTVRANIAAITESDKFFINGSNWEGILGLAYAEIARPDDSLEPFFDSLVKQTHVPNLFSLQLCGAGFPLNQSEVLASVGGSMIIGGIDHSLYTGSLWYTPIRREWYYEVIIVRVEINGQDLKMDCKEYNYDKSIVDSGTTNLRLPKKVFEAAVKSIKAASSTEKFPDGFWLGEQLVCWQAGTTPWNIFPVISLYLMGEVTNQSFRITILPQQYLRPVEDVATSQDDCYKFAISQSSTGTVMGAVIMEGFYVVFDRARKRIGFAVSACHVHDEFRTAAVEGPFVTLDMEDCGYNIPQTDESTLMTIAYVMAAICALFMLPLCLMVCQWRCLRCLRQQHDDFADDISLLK
row,SMILES,IC50 [µM]
1,"COc1cncc(-c2cccc(C3(C)COCC(N)=N3)c2)c1 (stereo not shown) [Example 1, 5-[3-(5-Methoxy-pyridin-3-yl)-phenyl]-5-methyl-5,6-dihydro-2H-[1,4]oxazin-3-ylamine]",0.1
2,"CC1(c2cccc(-c3ccc(F)cc3)c2)COCC(N)=N1 (stereo not shown) [Example 2, 5-(4′-Fluoro-biphenyl-3-yl)-5-methyl-5,6-dihydro-2H-[1,4]oxazin-3-ylamine]",1.17
3,"CC1(c2cccc(-c3ccsc3)c2)COCC(N)=N1 (stereo not shown) [Example 3, 5-Methyl-5-(3-thiophen-3-yl-phenyl)-5,6-dihydro-2H-[1,4]oxazin-3-ylamine]",1.06
4,"CC1(c2cccc(-c3cccc(Cl)c3)c2)COCC(N)=N1 (stereo not shown) [Example 4, 5-(3′-Chloro-biphenyl-3-yl)-5-methyl-5,6-dihydro-2H-[1,4]oxazin-3-ylamine]",0.39
5,"CC1(c2cccc(-c3cc(Cl)ccc3Cl)c2)COCC(N)=N1 (stereo not shown) [Example 5, 5-(2′,5′-Dichloro-biphenyl-3-yl)-5-methyl-5,6-dihydro-2H-[1,4]oxazin-3-ylamine]",1.09
6,"CC1(c2cccc(-c3cc(Cl)cc(Cl)c3Cl)c2)COCC(N)=N1 (stereo not shown) [Example 6, 5-Methyl-5-(2′,3′,5′-trichloro-biphenyl-3-yl)-5,6-dihydro-2H-[1,4]oxazin-3-ylamine]",4.06
7,"CC1(c2cccc(-c3ccc(F)c(Cl)c3)c2)COCC(N)=N1 (stereo not shown) [Example 7, 5-(3′-Chloro-4′-fluoro-biphenyl-3-yl)-5-methyl-5,6-dihydro-2H-[1,4]oxazin-3-ylamine]",0.65
8,"COc1cc(Cl)cc(-c2cccc(C3(C)COCC(N)=N3)c2)c1 (stereo not shown) [Example 8, 5-(3′-Chloro-5′-methoxy-biphenyl-3-yl)-5-methyl-5,6-dihydro-2H-[1,4]oxazin-3-ylamine]",1.49
9,"Cc1cc(Cl)cc(-c2cccc(C3(C)COCC(N)=N3)c2)c1F (stereo not shown) [Example 10, 5-(5′-Chloro-2′-fluoro-3′-methyl-biphenyl-3-yl)-5-methyl-5,6-dihydro-2H-[1,4]oxazin-3-ylamine]",1.5
10,"CC1(c2cccc(-c3cc(Cl)cc(C(F)(F)F)c3)c2)COCC(N)=N1 (stereo not shown) [Example 11, 5-(5′-Chloro-3′-trifluoromethyl-biphenyl-3-yl)-5-methyl-5,6-dihydro-2H-[1,4]oxazin-3-ylamine]",1.84
11,"CC1(c2cccc(-c3cc(Cl)cc(C(N)=O)c3)c2)COCC(N)=N1 (stereo not shown) [Example 12, 3′-(5-Amino-3-methyl-3,6-dihydro-2H-[1,4]oxazin-3-yl)-5-chloro-biphenyl-3-carboxylic acid amide]",1.12
12,"CC1(c2cccc(-c3cc(Cl)cc(C(=O)N4CCOCC4)c3)c2)COCC(N)=N1 (stereo not shown) [Example 13, [3′-(5-Amino-3-methyl-3,6-dihydro-2H-[1,4]oxazin-3-yl)-5-chloro-biphenyl-3-yl]-morpholin-4-yl-methanone]",2.39
13,"CC1(c2cccc(-c3cccc(OC(F)F)c3)c2)COCC(N)=N1 (stereo not shown) [Example 14, 5-(3′-Difluoromethoxy-biphenyl-3-yl)-5-methyl-5,6-dihydro-2H-[1,4]oxazin-3-ylamine]",0.48
14,"CC1(c2cccc(-c3cccc(OC(F)(F)F)c3)c2)COCC(N)=N1 (stereo not shown) [Example 15, 5-Methyl-5-(3′-trifluoromethoxy-biphenyl-3-yl)-5,6-dihydro-2H-[1,4]oxazin-3-ylamine]",2.31
15,"CC1(c2cccc(-c3cccc(C#N)c3)c2)COCC(N)=N1 (stereo not shown) [Example 16, 3′-(5-Amino-3-methyl-3,6-dihydro-2H-[1,4]oxazin-3-yl)-biphenyl-3-carbonitrile]",0.28
16,"CC1(c2cccc(-c3cccc(CC#N)c3)c2)COCC(N)=N1 (stereo not shown) [Example 17, [3′-(5-Amino-3-methyl-3,6-dihydro-2H-[1,4]oxazin-3-yl)-biphenyl-3-yl]-acetonitrile]",1.06

row,SMILES,IC50 [µM]
1,"CC(C)(C)c1ccc(-c2cccc(C3(C)COCC(N)=N3)c2)cc1 (stereo not shown) [Example 18, 5-(4′-tert-butyl-biphenyl-3-yl)-5-methyl-5,6-dihydro-2H-[1,4]oxazin-3-ylamine formate]",6.12
2,"CC1(c2cccc(-c3ccnc(Cl)c3)c2)COCC(N)=N1 (stereo not shown) [Example 19, 5-[3-(2-chloro-pyridin-4-yl)-phenyl]-5-methyl-5,6-dihydro-2H-[1,4]oxazin-3-ylamine formate]",1.06
3,"CC1(c2cccc(-c3cc(Cl)cnc3Cl)c2)COCC(N)=N1 (stereo not shown) [Example 20, 5-[3-(2,5-Dichloro-pyridin-3-yl)-phenyl]-5-methyl-5,6-dihydro-2H-[1,4]oxazin-3-ylamine]",0.49
4,"CC1(c2cccc(-c3ccc4c(c3)OC(F)(F)O4)c2)COCC(N)=N1 (stereo not shown) [Example 21, 5-[3-(2,2-Difluoro-benzo[1,3]dioxol-5-yl)-phenyl]-5-methyl-5,6-dihydro-2H-[1,4]oxazin-3-ylamine]",4.55
5,"CC1(c2cccc(-c3ccc4c(c3)OCO4)c2)COCC(N)=N1 (stereo not shown) [Example 22, 5-(3-Benzo[1,3]dioxol-5-yl-phenyl)-5-methyl-5,6-dihydro-2H-[1,4]oxazin-3-ylamine]",1.06
6,"Cn1ncc2c(-c3cccc(C4(C)COCC(N)=N4)c3)cccc21 (stereo not shown) [Example 23, 5-Methyl-5-[3-(1-methyl-1H-indazol-4-yl)-phenyl]-5,6-dihydro-2H-[1,4]oxazin-3-ylamine]",3.66
7,"CC1(c2cccc(-c3cc4ccc(Cl)cc4[nH]3)c2)COCC(N)=N1 (stereo not shown) [Example 24, 5-[3-(6-Chloro-1H-indol-2-yl)-phenyl]-5-methyl-5,6-dihydro-2H-[1,4]oxazin-3-ylamine]",12.7
8,"CC1(c2cccc(-c3ccc4[nH]ccc4c3)c2)COCC(N)=N1 (stereo not shown) [Example 25, 5-[3-(1H-Indol-5-yl)-phenyl]-5-methyl-5,6-dihydro-2H-[1,4]oxazin-3-ylamine]",6.41
9,"Cc1cc(-c2cccc(C3(C)COCC(N)=N3)c2)ccc1Cl (stereo not shown) [Example 26, 5-(4′-Chloro-3′-methyl-biphenyl-3-yl)-5-methyl-5,6-dihydro-2H-[1,4]oxazin-3-ylamine]",13
10,"CC1(c2cccc(-c3ccc(F)cc3F)c2)COCC(N)=N1 (stereo not shown) [Example 27, 5-(2′,4′-Difluoro-biphenyl-3-yl)-5-methyl-5,6-dihydro-2H-[1,4]oxazin-3-ylamine]",1.06
11,"CC1(c2cccc(-c3cc(F)cc(F)c3)c2)COCC(N)=N1 (stereo not shown) [Example 28, 5-(3′,5′-Difluoro-biphenyl-3-yl)-5-methyl-5,6-dihydro-2H-[1,4]oxazin-3-ylamine]",2.08
12,"CC1(c2cccc(-c3ccccc3Cl)c2)COCC(N)=N1 (stereo not shown) [Example 29, 5-(2′-Chloro-biphenyl-3-yl)-5-methyl-5,6-dihydro-2H-[1,4]oxazin-3-ylamine]",1.06
13,"CCOc1cccc(-c2cccc(C3(C)COCC(N)=N3)c2)c1 (stereo not shown) [Example 30, 5-(3′-Ethoxy-biphenyl-3-yl)-5-methyl-5,6-dihydro-2H-[1,4]oxazin-3-ylamine]",9.1
14,"CC1(c2ccc(F)c(-c3cc(Cl)cc(Cl)c3)c2)COCC(N)=N1 (stereo not shown) [Example 31, 5-(3′,5′-Dichloro-6-fluoro-biphenyl-3-yl)-5-methyl-5,6-dihydro-2H-[1,4]oxazin-3-ylamine]",1
15,"CC1(c2cccc(-c3ccc(Cl)cn3)c2)COCC(N)=N1 (stereo not shown) [Example 33, 5-[3-(5-Chloro-pyridin-2-yl)-phenyl]-5-methyl-5,6-dihydro-2H-[1,4]oxazin-3-ylamine]",12.6
